The numbers were not newly measured in patent publication US11230722B2, “Nutritional supplements and therapeutic compositions comprising (r)-3-hydroxybutyrate derivatives” (Oxford University Innovation Limited, priority 2003, dated 2022), which cites them from elsewhere.

This series concerns gastric enzymes.

Turning to `C[C@@H]1CC(=O)O[C@H](C)CC(=O)O[C@H](C)CC(=O)O1` [triolide, cyclic trimer of (R)-3-hydroxybutyrate], the absorption entry was “only poorly absorbed” and the “hydrolysis by gastric enzymes” value is reported as “not efficiently hydrolyzed”.
